Earlier results in publication PMC2764006 (Journal of molecular biology, 2009).

Settings: single-molecule FRET

persistence length lp: 44 Å
Substance: polyproline
